In article PMC9966338, “Inhibitory Potential of α-Amylase, α-Glucosidase, and Pancreatic Lipase by a Formulation of Five Plant Extracts: TOTUM-63” (International Journal of Molecular Sciences, 2023):
Like-named read-outs stand apart in the source and are kept apart here.

How the values were obtained:
[1] = molecular target: T1, α-Glucosidase (maltase from Saccharomyces cerevisiae) (Saccharomyces cerevisiae, UniProt P53341); assay: biochemical; type: biochemical
T1 construct: purchased Merck/Sigma-Aldrich
T1 sequence (P53341 whole entry): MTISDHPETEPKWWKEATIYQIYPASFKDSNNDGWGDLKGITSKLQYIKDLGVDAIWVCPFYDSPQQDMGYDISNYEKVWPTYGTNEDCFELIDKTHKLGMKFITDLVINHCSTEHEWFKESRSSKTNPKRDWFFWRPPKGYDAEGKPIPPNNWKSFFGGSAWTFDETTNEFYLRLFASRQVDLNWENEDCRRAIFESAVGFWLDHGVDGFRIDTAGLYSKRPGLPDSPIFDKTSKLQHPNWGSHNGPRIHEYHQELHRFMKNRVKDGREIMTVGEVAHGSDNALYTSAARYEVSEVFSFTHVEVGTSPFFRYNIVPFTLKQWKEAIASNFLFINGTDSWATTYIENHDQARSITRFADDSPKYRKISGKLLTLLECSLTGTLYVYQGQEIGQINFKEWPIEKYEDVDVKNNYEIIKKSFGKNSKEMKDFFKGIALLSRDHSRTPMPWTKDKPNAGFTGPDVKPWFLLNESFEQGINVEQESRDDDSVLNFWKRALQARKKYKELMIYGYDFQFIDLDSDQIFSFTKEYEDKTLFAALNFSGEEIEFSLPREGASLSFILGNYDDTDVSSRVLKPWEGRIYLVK
From the text: Chrysanthellin B was purchased from Extrasynthese (Genay, France). 2-(N-morpholino)-ethanesulfonic acid (MES) buffer was purchased from ThermoFisher Scientific (Waltham, Massachusetts, USA). NaN3 was obtained from Carlo Erba Reagents (Val-de-Reuil, France). Pure water was obtained using an Evoqua ultra-pure water production system (Water Technologies, Günzburg, Germany). The RED-NHS protein labeling kit was from NanoTemper Technologies (Munich, Germany).
α-Glucosidase hydrolytic activity was assessed by monitoring the conversion of p-nitrophenyl-α-D-glucopyranoside (PNPg) into p-nitrophenol (PNP). PNP levels were quantified at 405 nm. […] A series of PNP dilutions in buffer was used to generate the standard curve to convert PNP absorbance values into concentrations. The final α-glucosidase concentration corresponded to an activity of 30 µM of PNP/min for negative control without inhibitor. In each microplate well, 20 µL of test products diluted in a 50:50 (v:v) water:ethanol mixture (or 20 µL of this solvent mixture for the negative controls), 20 µL of α-glucosidase in buffer (or 20 µL of buffer for the blanks), and 100 µL of buffer were incubated in a microplate reader at 37 °C for 10 min. Then, 20 µL of PNPg substrate (2.5 mM in buffer) was added to each well to initiate the reaction. A FLUO Star Omega (BMG LabTech, Champigny sur Marne, France) 96-well microplate reader, thermostatically controlled at 37 °C, was used to measure the absorbance at 405 nm, every minute for 30 min. […] (1) % Relative activity=Residual activity/Negative control activity×100

[2] = molecular target: T1, α-Glucosidase (maltase from Saccharomyces cerevisiae); assay: α-Glucosidase inhibition kinetics (Lineweaver–Burk, SigmaPlot fit); type: biochemical
Experimental: α-glucosidase inhibition kinetics was investigated in vitro using the method described in Section 4.2.1. Inhibition models were determined by analysis of the Lineweaver–Burk plots using four concentrations of substrate and four concentrations of test products (including a “0”, without inhibitor). All initial rates were fitted to all enzymatic kinetic models with one substrate and one inhibitor provided by the Enzyme Kinetics Module of Sigma Plot 12 (Systat Software Inc., San Jose, CA, USA), using non-linear least-square regression models to determine the inhibition model and calculate the inhibitory constant (Ki).
Equations (2) and (3) (below) were used for data analysis and corresponded to the inhibition models that best fitted our data according to the SigmaPlot software 12 (Systat Software Inc., San Jose, CA, USA) [73]. […] Ki’ corresponds to the second inhibitor dissociation constant because, in a mixed model, the constants for E + I ↔ EI and ES + I ↔ ESI are different. Factor α, given by SigmaPlot (Systat Software Inc., San Jose, CA, USA), represents the equilibrium between Ki’ and Ki. (2) v =Vmax/1+(Km/[S])×(1+[I]/Ki) (3) v =Vmax/(1+[I]/Ki^’)+Km/[S]×(1+[I]/Ki)

[3] = molecular target: T2, α-glucosidase (Saccharomyces cerevisiae, UniProt P53341); assay: Interactions with α-glucosidase by fluorescence spectrum changes; type: binding; conditions: excitation 285 nm, emission 320–440 nm
T2 construct: purchased Merck/Sigma-Aldrich
T2 sequence (P53341 whole entry): as above
Experimental: Potassium phosphate buffer (0.1 M, pH 6.8) was used as the reaction buffer. The final α-glucosidase concentration in the wells was 1.275 mg/mL. For each microplate well, 20 µL of test product in a 50:50 (v:v) water:ethanol mixture (or 20 µL of this solvent mixture for the controls without products), 100 µL of α-glucosidase in buffer (or 100 µL of buffer for the blanks), and 40 µL of buffer were incubated at 25 °C in a microplate reader for 5 min. Then, fluorescence was measured at an excitation of 285 nm and an emission scan ranging from 320 nm to 440 nm.

[4] = tested on: lipase; design: method as in PMID 36105167; conditions: based on IC50 values; cited from earlier work
[5] = tested on: α-glucosidase; conditions: cited from earlier work
[6] = tested on: α-amylase; design: method as in PMID 30050443; conditions: based on IC50 values; cited from earlier work

C/C=C1/[C@H](O[C@@H]2O[C@H](CO)[C@@H](O)[C@H](O)[C@H]2O)OC=C(C(=O)OC)[C@H]1CC(=O)OCCc1ccc(O)c(O)c1 [Oleuropein]
IC50 [1]: 5.74 µM

C[C@H]1O[C@H](O[C@H]2[C@H](O)[C@@H](O)[C@@H](O[C@H]3[C@H](O)[C@@H](O)C(O)O[C@@H]3CO)O[C@@H]2CO)[C@H](O)[C@@H](O)[C@@H]1N[C@H]1C=C(CO)[C@@H](O)[C@H](O)[C@H]1O (stereo partly drawn) [Acarbose, acarbose]
Inhibition type ([2]; best-fitting model): Competitive (full)
Vmax ([2]; α-glucosidase in the presence of the inhibitor): 0.00182 mM/min
α-glucosidase fluorescence intensity with increasing concentrations [3]: less obvious effect

O=C1C[C@@H](c2ccc(O)c(O)c2)Oc2cc(O)cc(O)c21 [eriodictyol]
lipase inhibitory activity relative to orlistat [4]: more than two times higher

O=C(/C=C/c1ccc(O)c(O)c1)O[C@@H]1C[C@](O)(C(=O)O)C[C@@H](O)[C@H]1O [Chlorogenic acid]
α-glucosidase inhibition mechanism [5]: mixed

O=C(/C=C/c1ccc(O)c(O)c1)O[C@@H]1CC(O)(C(=O)O)C[C@@H](OC(=O)/C=C/c2ccc(O)c(O)c2)C1O (stereo partly drawn) [3,5-dicaffeoylquinic acid]
inhibitory activity on α-amylase, times higher than acarbose [6]: 9.4 times

O=C(/C=C/C=C/c1ccc2c(c1)OCO2)N1CCCCC1 [Piperine]
α-glucosidase inhibition mechanism [5]: mixed

CC1OC(OC2C(O)COC(OC3C(C)OC(OC4C(OC(=O)C56CCC(C)(C)CC5C5=CCC7C8(C)CCC(OC9OC(CO)C(O)C(O)C9O)C(C)(CO)C8CCC7(C)C5(C)CC6O)OCC(O)C4O)C(O)C3O)C2O)C(O)C(O)C1O (stereo not drawn) [Chrysanthellin B]
inhibitory effect on α-glucosidase relative to acarbose [1]: five times lower
IC50 ([1]; PNPg substrate, pH 6.8, 37 °C, read-out: IC50 α-Glucosidase (converted)): 127 µM

O=C(/C=C/c1ccc(O)c(O)c1)O[C@@H]1[C@H](O)C[C@@](O)(C(=O)O)C[C@H]1OC(=O)/C=C/c1ccc(O)c(O)c1 [3,4-dicaffeoylquinic acid]
inhibitory activity on α-amylase, times higher than acarbose [6]: 7.2 times

O=C(/C=C/c1ccc(O)c(O)c1)O[C@@H]1C[C@@](OC(=O)/C=C/c2ccc(O)c(O)c2)(C(=O)O)C[C@@H](O)[C@@H]1O [cynarin]
inhibitory activity on α-amylase, times higher than acarbose [6]: 4.8 times

O=c1cc(-c2ccc(O)c(O)c2)oc2cc(O[C@@H]3O[C@H](CO)[C@@H](O)[C@H](O)[C@H]3O)cc(O)c12 [luteolin-7-O-glucoside]
lipase inhibitory activity relative to orlistat [4]: more than two times higher

O=c1cc(-c2ccc(O)c(O)c2)oc2cc(O)cc(O)c12 [Luteolin]
α-glucosidase inhibition mechanism [5]: non-competitive
IC50 [1]: 1.4 µM

O=C(/C=C/c1ccc(O)c(O)c1)O[C@H]1[C@H](O)C[C@](O)(C(=O)O)C[C@H]1OC(=O)/C=C/c1ccc(O)c(O)c1 [4,5-dicaffeoylquinic acid]
inhibitory activity on α-amylase, times higher than acarbose [6]: 11.4 times

CC1(C)CC[C@]2(C(=O)O)CC[C@]3(C)C(=CC[C@@H]4[C@@]5(C)CC[C@H](O)C(C)(C)[C@@H]5CC[C@]43C)[C@@H]2C1 [Oleanolic acid]
inhibitory activity on α-glucosidase, times higher than acarbose [5]: 162 times

O=C(/C=C/c1ccc(O)c(O)c1)O[C@@H]1C[C@](OC(=O)/C=C/c2ccc(O)c(O)c2)(C(=O)O)C[C@@H](O)[C@H]1O [1,5-dicaffeoylquinic acid]
inhibitory activity on α-amylase, times higher than acarbose [6]: 6.2 times
